Assay results: patent US10653715B2, “Methods and compositions for extending lifespan” (priority 2016, dated 2020)
Several values for one entry are separate records, joined by “and”; a condition that tells them apart may be missing. Identical values can stand only once.

System: B6C3F1/J mice
Experiment: Large-scale lifespan screen of compounds in long-lived B6C3F1 hybrid mice
Format: in vivo, mouse
Settings: for extension of maximal lifespan: maximal lifespan = average lifespan of the 20% longest-lived mice; for extension of mean lifespan: 15 per compound, dosed from 5 months of age throughout lifespan, relative to untreated controls
Description: The majority of compounds included drugs currently used in medicine and drug-like molecules, with wide range of targets that span the entire pharmacological space.
The compounds were clustered into 62 drug classes based on their mechanism of action or cellular target. Screening a wide range of known compounds could potentially resolve two challenges. First, to analyze how distinct drug classes with common mechanisms of action affect aging in mammals. Second, to determine with no bias or predispositions which of the current pharmacological drugs can extend lifespan.
In this study, the inventors used a strain of long-lived B6C3F1 hybrid mice (C57BL/6J♀×C3H/HeJ♂) with well-characterized aging dynamics (Lipman 1999, Turturro, 1999). […] Each treatment group included 15 female mice per compound, while 335 females were used as controls. Three additional control groups included 60 female mice on dietary restriction (60% ad libitum), 60 female mice on a purified diet, and 60 male mice as gender control. Each compound treatment and diet intervention were administered to mice starting at 5 months of age, and continued throughout their lifespan. The primary endpoint was mouse mortality, from which we calculated mean lifespan, maximal lifespan, and the onset of morbidity for each experimental group. To calculate the statistical significance, the mean lifespan, maximal lifespan, and the onset of morbidity for each individual compound and drug class were compared to the lifespan distribution of untreated mice. […]

[1] = B6C3F1/J mice, compared to the lifespan distribution of untreated mice
[2] = female B6C3F1/J mice, dosed from 5 months of age, relative to controls

Compound: C[C@]12CC[C@@H]3c4ccc(O)cc4CC[C@H]3[C@@H]1CC[C@@H]2O [17β-estradiol]
- effect on mean and/or maximal lifespan (in words) [1]: significantly shortened
- reduction of mean lifespan [2]: 21%

Compound: CCOC(=O)C(C)(C)Oc1ccc(Cl)cc1 [Clofibrate]
- extension of maximal lifespan [2]: 20.9%
- extension of maximal lifespan (female B6C3F1/J mice, dosed from 5 months of age, relative to controls, listed as clofibrate): 21%

Compound: CC(=O)[O-].CC(=O)[O-].[Mg+2] [Magnesium Acetate]
- effect on mean and/or maximal lifespan (in words) (mouse, in vivo): significantly extended

Compound: [Cl-].[Cl-].[Mg+2] [Magnesium Chloride]
- effect on mean and/or maximal lifespan (in words) (mouse, in vivo): significantly extended

Compound: [Mg+2].[OH-].[OH-] [Magnesium Hydroxide]
- effect on mean and/or maximal lifespan (in words) (mouse, in vivo): significantly extended

Compound: O=C(O)CN(CCN(CC(=O)O)CC(=O)O)CCN(CC(=O)O)CC(=O)O [Pentetic acid, diethylene triamene pentaacetic acid]
- effect on mean and/or maximal lifespan (in words) [1]: significantly extended
- extension of mean lifespan (female B6C3F1/J mice): 16.1%
- extension of mean lifespan (female B6C3F1/J mice, listed as pentetic acid): 16%

Compound: C[C@@H]1O[C@@H](O[C@@H]2C=C3CC[C@@H]4[C@H](CC[C@]5(C)[C@@H](c6ccc(=O)oc6)CC[C@]45O)[C@@]3(C)CC2)[C@H](O)[C@H](O)[C@H]1O [Proscillaridin A]
- effect on mean and/or maximal lifespan (in words) [1]: significantly extended
- extension of mean lifespan (female B6C3F1/J mice): 16% and 16.4%
- extension of onset of morbidity [2]: 40% and 39.9%

Compound: Inulin
- effect on mean and/or maximal lifespan (in words) [1]: significantly extended
- extension of mean lifespan (female B6C3F1/J mice): 16%
- extension of maximal lifespan [2]: 18%
